Assays:
[1] = Plasma pharmacokinetics after 20-minute snout-only inhalation (nebulized aerosol) co-administration of DMT and DMT-d10 to male rats (Group 6); conditions: for mean residence time (MRT) after inhalation compared to IV administration, fold greater: inhalation vs IV; for time of highest plasma concentration (first time point taken): after start of inhalation; for AUC0-1/dose: dose normalized
[2] = Plasma pharmacokinetics after intravenous (bolus) co-administration of DMT and DMT-d10 to male rats (Group 4); conditions: for AUC0-1/dose: dose normalized; for t1/2: calculated 0.083 to 1.0 hr
[3] = Plasma pharmacokinetics after oral gavage co-administration of DMT and DMT-d10 to male rats (Group 2); conditions: for bioavailability / AUC(0-t): male, Sprague Dawley, rat, po, 10 mg/kg; for bioavailability / AUC(0-t) / AUC0-1/dose: plasma; for time of peak plasma concentration postdose: oral administration 10 mg/kg; for AUC0-1/dose: dose normalized
[4] = Brain pharmacokinetics and brain to plasma ratio after intravenous (bolus) co-administration of DMT and DMT-d10 to male rats (Group 4); conditions: for Kp: male, Sprague Dawley, rat, iv, 1 mg/kg
[5] = plasma, inhalation 14.3 mg/kg DMT, 15.5 mg/kg DMT-d10
[6] = plasma, male rats, inhalation 14.3 mg/kg DMT + 15.5 mg/kg DMT-d10
[7] = summary table, plasma, inhalation 14.3 mg/kg DMT, 15.5 mg/kg DMT-d10
[8] = male, Sprague Dawley, rat, plasma, iv, 1 mg/kg
[9] = plasma, male rats, IV bolus 1 mg/kg, co-administered
[10] = summary table, plasma, intravenous 1 mg/kg
[11] = AUC0-t, male rats, oral gavage (OG) 10 mg/kg, co-administered
[12] = brain, male rats, IV bolus 1 mg/kg, co-administered
[13] = male, Sprague Dawley, rat, plasma, inhaled or intranasal, 15.5 mg/kg

Row | Structure (SMILES) | mean residence time (MRT) after inhalation compared to IV administration, fold greater [1] | time of highest plasma concentration (first time point taken) ([1]; inhalation) [h] | AUC0-1/dose [1, 5] | AUC0-1 [1, 7] [ng·h/mL] | time of highest plasma concentration (first time point taken) ([2]; IV bolus 1 mg/kg) [h] | MRT last [2, 8] [min] | AUC0-1/dose ([2]; plasma, intravenous 1 mg/kg) | AUC0-1 [2, 9] [ng·h/mL] | AUC(0-t) [2, 9] [ng·h/mL] | AUC0-1 [2, 10] [ng·h/mL] | t1/2 [2, 10] [min] | bioavailability [3] [%] | AUC(0-t) [3, 11] [ng·h/mL] | time of peak plasma concentration postdose [3] [h] | AUC0-1/dose ([3]; oral 10 mg/kg) | AUC0-t (brain) [4, 12] [ng·h/g] | Cmax (brain) [4, 12] [ng/g] | Kp ([4]; brain) | further results
1 | CN(C)CCc1c[nH]c2ccccc12 [DMT, N,N-dimethyltryptamine, reference compound] | approximately 5 × | 0.333 | 18.2 | 260 | 0.083 | 12.7 | 112 | 112 | 112 | 112 | 10.3 | 1.36 | 109 | 1 | 1.52 | 1060 | 3430 | 9.5 | AUC(0-t) [1, 6]: 308 ng·h/mL; half-life [2, 8]: 10.3 min; AUC0-inf [2, 9]: 114 ng·h/mL; AUC(0-t) ([3]; AUC0-1, plasma, male rats, oral gavage (OG) 10 mg/kg, co-administered): 15.2 ng·h/mL; AUC(0-t) ([3]; AUC0-1, summary table, oral 10 mg/kg): 15.2 ng·h/mL; AUC0-inf (brain) [4, 12]: 1070 ng·h/g; t1/2 (brain) ([4]; brain, male rats, IV bolus 1 mg/kg, calculated 0.25 to 1 hr): 9.3 min
2 | [2H]C([2H])([2H])N(C([2H])([2H])[2H])C([2H])([2H])C([2H])([2H])c1c[nH]c2ccccc12 [DMT-d10, 2-(1H-indol-3-yl)-N,N-bis(methyl-d3)ethan-1-amine-1,1,2,2-d4] | approximately 5 × | 0.333 | 17.0 | 264 | 0.083 | 19.6 | 75.4 | 75.4 | 75.4 | 75.4 | 26.8 | 1.16 | 80.2 | 1 | 0.878 | 931 | 1490 | 12.3 | improvement of duration of exposure (MRTlast) by deuteration ([1]; DMT-d10 vs. DMT, after inhalation): 24.6%; increase of inhalation bioavailability by deuteration ([1]; DMT-d10 vs. DMT, inhalation): approximately 40%; inhalation bioavailability, fold greater than oral bioavailability ([1]; inhalation vs oral): approximately 20 ×; AUC0-inf [1, 13]: 384 ng·h/mL; half-life [1, 13]: 325 min; AUC0-1 [1, 6]: 264 ng·h/mL; t1/2 ([1]; summary table, plasma, inhalation 15.5 mg/kg DMT-d10, calculated 0.333 to 3.333 hr): 325 min; improvement of duration of exposure (MRTlast) by deuteration ([2]; DMT-d10 vs. DMT, after IV): 54.5%; t1/2 ([2]; plasma, male rats, IV bolus 1 mg/kg): 26.8 min; improvement of brain to plasma (B/P) ratio by deuteration ([4]; DMT-d10 vs. DMT, IV 1 mg/kg): approximately 30%
